Reference: publication PMC11091220, “Metabolism-driven in vitro/in vivo disconnect of an oral ERɑ VHL-PROTAC” (Communications Biology, 2024)
“And” between values parts separate entries of the source, which are not always exact repeats. Identical values can stand only once. Like-named read-outs stand apart in the source and are kept apart here.

What was measured:
[1] = Total plasma exposure of AZ’6421 and metabolite 8 in rat; format: in vivo; settings: for Total plasma: rat, individual animals, analyte = label
Procedure: Fig. 8 Evidence of ER agonism of AZ’6421 and compound 8 in vitro and in vivo. a 100 nM compound or 10 nM estradiol (E2) were incubated with Ishikawa cells for 48 h and lysates measured for PR expression by western blot. b Normalised rat uterine weight shown as % change from respective vehicle control after 4 days dosing. c Representative H&E stained images taken from sections of uterine horn after 4 days of dosing. d Total plasma exposure of AZ’6421 and its metabolite 8 following dosing of 100 mg/kg BID or 30 mg/kg BID AZ’6421. Plasma samples were taken 4 hr after the 4th dose, at the same time as the uterus was weighed and sectioned for H&E staining.
(§1) Each plasma sample ([…]) was prepared using an appropriate dilution factor, and compared against an 11-point standard calibration curve (1-10000 nM) prepared in DMSO and spiked into blank plasma. Acetonitrile ([…]) was added with the internal standard, followed by centrifugation at 3000 rpm for 10 minutes. The supernatant ([…]) was then diluted in […] acetonitrile:water (75:25) and analyzed via UPLC-MS/MS.

[2] = Plasma exposure of AZ’6421 and metabolite 8 in CTC174 PDX mice (free, cover over DC90); format: in vivo, mouse
Procedure: Mice were randomised into groups of 5 once tumour sizes reached approximately 0.3 to 0.4 cm^3. A vehicle control or AZ’6421 1, 3, 10, 30, and 100 mg/kg were dosed orally, once daily (QD) or twice daily (BID) in 5% v/v DMSO, 20% v/v Solutol HS15 in purified water formulation. AZD9833 was dosed once daily at 100 mg/kg in 40% TEG/60% (of 12.5%) SBE-β-CD formulation. Mice were dosed for 4 days and tumours were harvested 6 hours after the last dose. Tumour tissue was split into 3 and immediately snap-frozen in liquid nitrogen for subsequent analysis. Plasma samples were also taken at the end of the study by terminal cardiac bleed under isoflurane anaesthesia to measure pharmacokinetics and ensure the expected exposure was reached during the dosing period.
as §1
The MS/MS instrument used was either a Waters XEVO® TQ-S, Waters XEVO® TQ-D, or API 4000 (AB Sciex). The ultra-mass spectrometer used for sample analysis was completed in the MRM mode (MS/MS). Reverse-phase HPLC with a C18 column was used to separate the analytes. A mobile phase of 99% water/0.1% formic acid (solvent A) and a solvent phase of 99% acetonitrile/0.1% formic acid (solvent B) was used. A generic LC gradient elution was used at a flow rate of 0.5 mL/min with 95% solvent A and 5% solvent B for 0.3 min after which the concentration of solvent B was increased to 95% over 0.9 min before restoring it back to 5% for the remaining 0.5 min. Mass spectrometer methods were optimised for each compound.

[3] = Plasma protein binding (RED device), mouse plasma; format: in vitro ADME; settings: for Mouse fup: fraction unbound in plasma; for Mouse fup, Free: fraction free
Procedure: Plasma protein binding was completed using a RED device. The test compound was prepared to 1 mM in 100% DMSO and further diluted in plasma to achieve a final compound concentration of 5 μM in the incubation. Phosphate buffered solution pH 7.4 (500 μL) was added to the receiver chamber of the RED device and spiked plasma (300 μL) was added to the donor chamber. The plate was covered with a gas-permeable lid and incubated for 18 h at 37 °C with 5% CO2 on an orbital shaker at 300 rpm. At the end of incubation, 50 μL of post-dialysis sample from the donor and receiver wells were aliquot into separate wells and matrix-matched with 50 μL of phosphate buffer solution pH 7.4 or blank plasma, respectively. The samples were subsequently quenched separately in 400 μL of ice-cold 100% acetonitrile. Quenched samples were shaken at 1000 rpm for 10 min and centrifuged for 30 min at 4000 rpm to pellet precipitated protein. The supernatant fraction was further diluted 1:1 with deionised water for analysis by LC MS/MS[17].

[4] = target: T1, ERα (Homo sapiens, UniProt P03372); assay: ERα high throughput imaging degradation assay in MCF7 cells; format: cell-based; settings: for Dmax: MCF7; for DC50: MCF7 cells, 20 to 24 hours; for ERa degradation (% vs fulv): Figure 6e, individual replicates
T1 construct: endogenous in cells; host or cells: MCF7 (also MCF7 engineered to express Cas9)
T1 sequence (P03372 1-595): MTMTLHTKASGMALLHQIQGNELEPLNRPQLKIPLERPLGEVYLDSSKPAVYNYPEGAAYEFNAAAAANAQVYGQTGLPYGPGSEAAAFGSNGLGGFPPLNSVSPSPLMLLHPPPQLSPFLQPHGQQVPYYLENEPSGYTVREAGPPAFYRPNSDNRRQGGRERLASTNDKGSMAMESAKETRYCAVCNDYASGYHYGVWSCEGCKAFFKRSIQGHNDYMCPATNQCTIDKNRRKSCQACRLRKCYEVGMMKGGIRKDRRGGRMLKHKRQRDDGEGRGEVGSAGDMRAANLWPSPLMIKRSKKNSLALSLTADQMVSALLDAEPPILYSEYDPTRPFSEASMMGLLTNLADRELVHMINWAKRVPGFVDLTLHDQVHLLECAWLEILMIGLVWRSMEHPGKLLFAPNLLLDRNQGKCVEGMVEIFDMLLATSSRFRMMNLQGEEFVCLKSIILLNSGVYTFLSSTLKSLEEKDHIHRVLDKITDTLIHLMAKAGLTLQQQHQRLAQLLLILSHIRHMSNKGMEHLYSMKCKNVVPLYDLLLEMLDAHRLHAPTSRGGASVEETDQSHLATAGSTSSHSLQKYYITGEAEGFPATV
Procedure: Cells were fixed, permeabilised and stained with anti-ERα (rabbit clone SP1, Thermo) and anti-PR (mouse clone PgR 636, Dako) antibodies followed by secondary AlexaFluor 594 goat anti-rabbit and AlexaFluor 488 goat anti-mouse IgG antibodies. Imaging was using the Thermo Cellinsight scanner and average fluorescence intensity was analysed using Genedata.

[5] = AZ'6421 dosed 30 mg/kg BID, 30 mg/kg
[6] = AZ'6421 dosed 100 mg/kg BID, 100 mg/kg

Cc1ncsc1-c1ccc(CNC(=O)[C@@H]2C[C@@H](O)CN2C(=O)[C@@H](NC(=O)COCCCOCCCOc2cc(F)c([C@@H]3c4[nH]c5ccccc5c4C[C@@H](C)N3CC(C)(C)F)c(F)c2)C(C)(C)C)cc1 [Compound 5]
Total plasma [1, 5]: 0.1461 µM and 0.4943 µM and 0.0995 µM | Total plasma [1, 6]: 1.2846 µM and 2.0194 µM and 0.7522 µM and 0.1020 µM and 0.0689 µM | cover for target engagement by plasma drug concentration ([2]; 100 mg/kg dose): free plasma exposure > free DC90 | fraction converted to 8 within 2 hours ([2]; 100 mg/kg, from Fig. 6d): 7% | free in mouse plasma [3]: 0.02% | Mouse fup [3]: 0.0002 (1) | Mouse fup, Free ([3]; mouse plasma): 0.0002 | Degradation vs fulvestrant ([4]; Log M -7.0, listed as AZ'6421): 101.3% and 100.0% and 100.9% and 100.7% and 96.8% and 100.1% and 99.4% and 99.7% | Dmax ([4]; MCF7, read-out: ERα imaging Dmax, 0% vehicle control, 100% fulvestrant): 100 ± 1% | DC50 [4]: 0.4 ± 0.1 nM | ERa degradation (% vs fulv) ([4]; log[compound] (M) -6.52, listed as AZ'6421): 99.33% and 99.93% and 101.36% and 100.78% and 99.17% and 100.53% and 100.63% and 100.07% and 100.14% and 100.02% | ERa degradation (% vs fulv) ([4]; log[compound] (M) -7.00, listed as AZ'6421): 101.32% and 100.02% and 100.91% and 100.71% and 100.90% and 96.75% and 100.07% and 99.39% and 100.12% and 99.67% | ERa degradation (% vs fulv) ([4]; log[compound] (M) -7.51, listed as AZ'6421): 100.79% and 99.35% and 100.85% and 99.32% and 100.51% and 92.08% and 99.13% and 99.41% and 100.03% and 98.51% | ERa degradation (% vs fulv) ([4]; log[compound] (M) -9.00, listed as AZ'6421): 93.78% and 65.44% and 89.78% and 70.27% and 72.25% and 75.33% and 76.06% and 75.57% and 73.41% and 66.07% | ERa degradation (% vs fulv) ([4]; log[compound] (M) -9.51, listed as AZ'6421): 66.11% and 33.08% and 64.57% and 26.47% and 39.19% and 41.32% and 37.58% and 27.55% and 33.68% and 36.35% | ERa degradation (% vs fulv) ([4]; log[compound] (M) -9.90, listed as AZ'6421): 38.07% and 5.08% and 43.62% and 16.97% and 24.51% and 17.96% and 13.58% and 13.52% and 2.56% and 2.84% | ERa degradation (% vs fulv) ([4]; log[compound] (M) -10.51, listed as AZ'6421): 17.15% and -10.39% and 19.63% and 15.57% and 7.27% and 25.30% and 2.21% and -11.02% and -6.17% and -0.64% | ERa degradation (% vs fulv) ([4]; log[compound] (M) -10.90, listed as AZ'6421): 22.79% and -6.31% and 31.83% and 8.09% and 2.16% and 2.02% and 3.46% and -2.88% and 3.42% and 4.13% | ERa degradation (% vs fulv) ([4]; log[compound] (M) -11.51, listed as AZ'6421): 16.49% and -4.42% and 21.83% and -8.62% and -7.44% and -0.35% and 7.90% and 8.64% and 8.25% and -5.38% | ERa degradation (% vs fulv) ([4]; log[compound] (M) -12.51, listed as AZ'6421): 22.96% and -5.76% and 24.26% and -2.82% and -3.01% and -3.46% and -11.46% and 15.61% and -2.65% and -10.83%

C[C@@H]1Cc2c([nH]c3ccccc23)[C@@H](c2c(F)cc(OCCC(=O)O)cc2F)N1CC(C)(C)F [Compound 8]
level in rat plasma ([1]; after dosing AZ’6421): found at sizable levels in rat plasma | Total plasma [1, 5]: 1.0069 µM and 2.5325 µM and 3.6803 µM and 2.8962 µM and 0.8884 µM | Total plasma [1, 6]: 7.8737 µM and 9.6410 µM and 6.9833 µM and 3.4205 µM and 4.6683 µM | free plasma concentration, fold above the compounds DC90 ([2]; AZ’6421 efficacy study): > 10 fold | free plasma concentration, fold higher than free AZ’6421 ([2]; steady state, AZ’6421 efficacy study): ~ 10 fold | free in mouse plasma [3]: 0.5% | Mouse fup [3]: 0.005 (1) | difference in the free levels vs AZ’6421 ([3]; mouse plasma): 25 fold | Mouse fup, Free ([3]; mouse plasma): 0.005 | Dmax ([4]; 0% vehicle control, 100% fulvestrant, read-out: ERα imaging Dmax): 86 ± 4% | DC50 [4]: 0.5 ± 0.1 nM | ERa degradation (% vs fulv) ([4]; log[compound] (M) -6.52): 86.16% and 85.41% and 90.14% and 89.92% and 86.68% and 83.66% and 85.58% and 80.53% | ERa degradation (% vs fulv) ([4]; log[compound] (M) -7.00): 65.22% and 84.95% and 90.84% and 90.97% and 84.15% and 85.62% and 84.72% and 83.12% | ERa degradation (% vs fulv) ([4]; log[compound] (M) -7.51): 87.11% and 87.02% and 90.35% and 91.70% and 85.51% and 86.15% and 84.84% and 84.81% | ERa degradation (% vs fulv) ([4]; log[compound] (M) -7.90): 81.45% and 85.48% and 90.59% and 86.35% and 80.42% and 79.30% and 79.15% and 77.88% | ERa degradation (% vs fulv) ([4]; log[compound] (M) -8.52): 80.28% and 76.86% and 80.57% and 81.16% and 72.31% and 67.13% and 75.58% and 76.43% | ERa degradation (% vs fulv) ([4]; log[compound] (M) -9.00): 64.37% and 61.04% and 63.02% and 63.61% and 52.14% and 45.07% and 64.32% and 69.99% | ERa degradation (% vs fulv) ([4]; log[compound] (M) -9.51): 21.08% and 35.46% and 24.68% and 25.02% and 22.82% and 21.75% and 38.96% and 36.82% | ERa degradation (% vs fulv) ([4]; log[compound] (M) -9.90): 20.56% and 6.22% and 6.66% and 18.09% and -5.08% and 24.12% and -6.47% and -3.82% | ERa degradation (% vs fulv) ([4]; log[compound] (M) -10.51): -1.75% and -2.12% and 13.25% and 9.62% and 10.07% and 23.66% and -5.98% and -1.61% | ERa degradation (% vs fulv) ([4]; log[compound] (M) -10.90): -0.94% and -3.29% and -5.11% and -4.81% and 28.56% and 0.42% and 1.50% and -12.94% | ERa degradation (% vs fulv) ([4]; log[compound] (M) -11.51): 5.64% and 1.40% and -9.86% and -6.66% and -0.74% and -8.00% and -7.44% and -13.98% | ERa degradation (% vs fulv) ([4]; log[compound] (M) -12.51): -13.89% and 2.41% and -4.59% and -2.38% and -17.18% and -3.64% and -7.40% and -8.33%
